Reference: ChEMBL document CHEMBL1156950, “Synthesis and biological evaluation of 4-anilinoquinolines as potent inhibitors of epidermal growth factor receptor” (J Med Chem, 2010)

Tests used:
[1] = target: Calcium/calmodulin-dependent protein kinase kinase 2 (Homo sapiens) (UniProt Q96RR4); assay: Inhibition of CAMKKbeta at 10 uM assessed as residual activity by [33P]ATP radioactive filter binding assay relative to control
[2] = target: Ephrin type-B receptor 3 (Homo sapiens) (UniProt P54753); assay: Inhibition of EPH-B3 at 10 uM assessed as residual activity by [33P]ATP radioactive filter binding assay relative to control
Ephrin type-B receptor 3 (Homo sapiens), sequence (P54753 whole entry): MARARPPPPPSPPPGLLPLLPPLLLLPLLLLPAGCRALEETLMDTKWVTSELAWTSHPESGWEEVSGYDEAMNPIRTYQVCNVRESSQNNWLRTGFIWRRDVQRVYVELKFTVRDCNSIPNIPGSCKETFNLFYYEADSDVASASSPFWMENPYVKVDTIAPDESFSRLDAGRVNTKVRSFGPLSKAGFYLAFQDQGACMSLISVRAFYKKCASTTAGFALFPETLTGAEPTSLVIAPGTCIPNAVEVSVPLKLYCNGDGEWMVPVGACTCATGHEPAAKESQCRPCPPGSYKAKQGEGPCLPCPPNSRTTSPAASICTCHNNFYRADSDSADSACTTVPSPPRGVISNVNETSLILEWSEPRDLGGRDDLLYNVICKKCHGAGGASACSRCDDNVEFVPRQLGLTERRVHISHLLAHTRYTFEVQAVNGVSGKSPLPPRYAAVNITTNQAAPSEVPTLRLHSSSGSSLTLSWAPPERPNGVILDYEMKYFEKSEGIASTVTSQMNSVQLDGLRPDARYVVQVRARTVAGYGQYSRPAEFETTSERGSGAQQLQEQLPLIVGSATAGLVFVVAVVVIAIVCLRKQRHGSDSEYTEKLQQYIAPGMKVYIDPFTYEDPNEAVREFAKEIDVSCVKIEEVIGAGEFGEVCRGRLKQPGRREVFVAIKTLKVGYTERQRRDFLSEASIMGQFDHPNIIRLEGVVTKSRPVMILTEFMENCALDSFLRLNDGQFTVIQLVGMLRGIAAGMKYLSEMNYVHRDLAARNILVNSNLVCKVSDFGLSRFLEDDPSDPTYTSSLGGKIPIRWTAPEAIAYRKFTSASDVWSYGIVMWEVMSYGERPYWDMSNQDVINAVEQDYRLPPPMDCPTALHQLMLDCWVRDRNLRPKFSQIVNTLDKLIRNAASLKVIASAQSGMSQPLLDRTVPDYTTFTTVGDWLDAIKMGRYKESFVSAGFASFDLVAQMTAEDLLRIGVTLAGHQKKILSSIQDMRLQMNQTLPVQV

[3] = target: Glycogen synthase kinase-3 beta (Homo sapiens) (UniProt P49841); assay: Inhibition of GSK3-beta at 10 uM assessed as residual activity by [33P]ATP radioactive filter binding assay relative to control
Glycogen synthase kinase-3 beta (Homo sapiens), sequence (P49841 whole entry, looked up): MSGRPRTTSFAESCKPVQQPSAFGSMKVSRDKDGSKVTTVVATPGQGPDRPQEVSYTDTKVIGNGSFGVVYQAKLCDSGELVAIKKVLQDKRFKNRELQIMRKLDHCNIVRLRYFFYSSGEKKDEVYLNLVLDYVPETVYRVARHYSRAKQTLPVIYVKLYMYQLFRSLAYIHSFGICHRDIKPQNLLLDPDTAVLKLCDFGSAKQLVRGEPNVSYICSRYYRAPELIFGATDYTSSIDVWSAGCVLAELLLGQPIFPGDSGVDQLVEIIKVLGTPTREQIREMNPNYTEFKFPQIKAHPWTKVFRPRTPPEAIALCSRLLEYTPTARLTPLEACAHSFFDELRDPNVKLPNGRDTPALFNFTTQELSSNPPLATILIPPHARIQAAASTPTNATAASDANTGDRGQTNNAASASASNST

[4] = target: MAP kinase-activated protein kinase 2 (Homo sapiens) (UniProt P49137); assay: Inhibition of MAPKAP-K2 at 10 uM assessed as residual activity by [33P]ATP radioactive filter binding assay relative to control
[5] = target: RAC-alpha serine/threonine-protein kinase (Homo sapiens) (UniProt P31749); assay: Inhibition of PKBalpha at 10 uM assessed as residual activity by [33P]ATP radioactive filter binding assay relative to control
cells [6] = conditions: Mus musculus, BaF3, 96 h
Description: Growth inhibition of mouse BA/F3 cells expressing EGFR Del5 mutant after 96 hrs by cell titer-glo assay

[7] = target: Homeodomain-interacting protein kinase 1 (Homo sapiens) (UniProt Q86Z02); assay: Inhibition of HIPK1 at 10 uM assessed as residual activity by [33P]ATP radioactive filter binding assay relative to control
[8] = target: Receptor tyrosine-protein kinase erbB-4 (Homo sapiens) (UniProt Q15303); assay: Inhibition of HER4 at 10 uM assessed as residual activity by [33P]ATP radioactive filter binding assay relative to control
Receptor tyrosine-protein kinase erbB-4 (Homo sapiens), sequence (Q15303 whole entry): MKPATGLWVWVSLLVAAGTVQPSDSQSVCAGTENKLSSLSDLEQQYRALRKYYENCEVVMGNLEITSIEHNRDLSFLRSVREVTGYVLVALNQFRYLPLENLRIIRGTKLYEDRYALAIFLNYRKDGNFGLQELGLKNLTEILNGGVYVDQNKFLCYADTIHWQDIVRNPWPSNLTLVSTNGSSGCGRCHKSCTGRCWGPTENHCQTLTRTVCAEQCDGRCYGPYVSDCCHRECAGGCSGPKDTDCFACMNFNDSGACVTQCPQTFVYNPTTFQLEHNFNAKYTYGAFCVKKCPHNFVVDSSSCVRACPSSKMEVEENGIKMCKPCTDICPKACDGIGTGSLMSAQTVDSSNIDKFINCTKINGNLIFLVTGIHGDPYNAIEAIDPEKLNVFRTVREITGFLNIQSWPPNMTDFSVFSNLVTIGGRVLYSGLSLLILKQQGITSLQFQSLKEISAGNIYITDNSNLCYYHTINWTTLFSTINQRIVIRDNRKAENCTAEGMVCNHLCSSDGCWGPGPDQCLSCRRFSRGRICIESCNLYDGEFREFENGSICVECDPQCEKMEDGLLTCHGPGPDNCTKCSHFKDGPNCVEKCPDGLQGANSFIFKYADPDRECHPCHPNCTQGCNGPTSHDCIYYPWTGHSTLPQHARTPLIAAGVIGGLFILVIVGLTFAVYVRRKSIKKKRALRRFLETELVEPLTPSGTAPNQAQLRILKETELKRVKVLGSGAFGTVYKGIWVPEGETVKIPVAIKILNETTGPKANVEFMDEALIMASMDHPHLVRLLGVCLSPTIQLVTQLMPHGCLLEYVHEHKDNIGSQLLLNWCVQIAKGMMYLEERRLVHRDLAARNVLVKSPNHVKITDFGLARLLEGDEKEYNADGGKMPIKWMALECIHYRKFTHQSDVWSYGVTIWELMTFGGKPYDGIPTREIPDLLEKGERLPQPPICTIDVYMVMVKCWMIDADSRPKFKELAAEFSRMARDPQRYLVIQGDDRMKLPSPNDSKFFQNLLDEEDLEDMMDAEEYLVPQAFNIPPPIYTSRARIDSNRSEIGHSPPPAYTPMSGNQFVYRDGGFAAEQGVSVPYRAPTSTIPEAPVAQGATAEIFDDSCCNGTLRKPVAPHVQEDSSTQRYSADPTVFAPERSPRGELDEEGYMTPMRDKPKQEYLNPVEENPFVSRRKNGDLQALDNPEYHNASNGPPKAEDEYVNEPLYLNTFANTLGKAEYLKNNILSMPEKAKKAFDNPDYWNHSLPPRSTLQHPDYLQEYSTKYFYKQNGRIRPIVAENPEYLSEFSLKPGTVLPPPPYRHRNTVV

[9] = target: Receptor-interacting serine/threonine-protein kinase 2 (Homo sapiens) (UniProt O43353); assay: Inhibition of RIPK2 at 10 uM assessed as residual activity by [33P]ATP radioactive filter binding assay relative to control
[10] = target: Calcium/calmodulin-dependent protein kinase type 1 (Homo sapiens) (UniProt Q14012); assay: Inhibition of CAMK1 at 10 uM assessed as residual activity by [33P]ATP radioactive filter binding assay relative to control
Calcium/calmodulin-dependent protein kinase type 1 (Homo sapiens), sequence (Q14012 whole entry, looked up): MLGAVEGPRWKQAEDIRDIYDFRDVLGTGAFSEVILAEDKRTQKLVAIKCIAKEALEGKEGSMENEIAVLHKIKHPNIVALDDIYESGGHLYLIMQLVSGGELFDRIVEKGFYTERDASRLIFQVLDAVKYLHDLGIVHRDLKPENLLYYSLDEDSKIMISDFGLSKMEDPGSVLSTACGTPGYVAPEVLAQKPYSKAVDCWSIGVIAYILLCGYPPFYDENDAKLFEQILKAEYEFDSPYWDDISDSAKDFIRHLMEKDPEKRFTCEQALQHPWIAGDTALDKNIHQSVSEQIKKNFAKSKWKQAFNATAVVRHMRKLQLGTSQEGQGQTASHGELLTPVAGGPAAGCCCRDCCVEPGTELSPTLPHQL

[11] = target: SRSF protein kinase 1 (Homo sapiens) (UniProt Q96SB4); assay: Inhibition of SRPK1 at 10 uM assessed as residual activity by [33P]ATP radioactive filter binding assay relative to control
[12] = Inhibition of VEGFR at 10 uM assessed as residual activity by [33P]ATP radioactive filter binding assay relative to control
[13] = target: Mitogen-activated protein kinase kinase kinase kinase 2 (Homo sapiens) (UniProt Q12851); assay: Inhibition of GCK at 10 uM assessed as residual activity by [33P]ATP radioactive filter binding assay relative to control
[14] = target: Insulin-like growth factor 1 receptor (Homo sapiens) (UniProt P08069); assay: Inhibition of IGF-1R at 10 uM assessed as residual activity by [33P]ATP radioactive filter binding assay relative to control
[15] = target: MAP kinase-activated protein kinase 3 (Homo sapiens) (UniProt Q16644); assay: Inhibition of MAPKAPK-3 at 10 uM assessed as residual activity by [33P]ATP radioactive filter binding assay relative to control
[16] = target: RAC-beta serine/threonine-protein kinase (Homo sapiens) (UniProt P31751); assay: Inhibition of PKBbeta at 10 uM assessed as residual activity by [33P]ATP radioactive filter binding assay relative to control
[17] = target: Dual specificity tyrosine-phosphorylation-regulated kinase 3 (Homo sapiens) (UniProt O43781); assay: Inhibition of DYRK3 at 10 uM assessed as residual activity by [33P]ATP radioactive filter binding assay relative to control
[18] = target: Tyrosine-protein kinase CSK (Homo sapiens) (UniProt P41240); assay: Inhibition of CSK at 10 uM assessed as residual activity by [33P]ATP radioactive filter binding assay relative to control
Tyrosine-protein kinase CSK (Homo sapiens), sequence (P41240 2-450 limits assumed): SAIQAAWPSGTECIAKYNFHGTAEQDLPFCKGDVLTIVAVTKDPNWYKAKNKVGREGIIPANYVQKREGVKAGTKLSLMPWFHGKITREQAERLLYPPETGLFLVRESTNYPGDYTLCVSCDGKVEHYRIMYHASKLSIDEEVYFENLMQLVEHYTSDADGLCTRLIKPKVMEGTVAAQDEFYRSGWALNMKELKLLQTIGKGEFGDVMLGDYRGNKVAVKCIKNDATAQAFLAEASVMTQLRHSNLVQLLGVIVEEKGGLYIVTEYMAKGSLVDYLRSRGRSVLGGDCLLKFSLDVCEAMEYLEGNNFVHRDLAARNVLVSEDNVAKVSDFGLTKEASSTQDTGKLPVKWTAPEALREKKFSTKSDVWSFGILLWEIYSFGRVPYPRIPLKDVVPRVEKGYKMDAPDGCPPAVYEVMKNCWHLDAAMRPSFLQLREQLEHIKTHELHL

[19] = Inhibition of CK2 at 10 uM assessed as residual activity by [33P]ATP radioactive filter binding assay relative to control
cells [20] = conditions: Mus musculus, BaF3, 96 h; remark: listed apart in the source
[21] = target: Serine/threonine-protein kinase Sgk1 (Homo sapiens) (UniProt O00141); assay: Inhibition of SGK1 at 10 uM assessed as residual activity by [33P]ATP radioactive filter binding assay relative to control
[22] = target: Mitogen-activated protein kinase 9 (Homo sapiens) (UniProt P45984); assay: Inhibition of JNK2 at 10 uM assessed as residual activity by [33P]ATP radioactive filter binding assay relative to control
[23] = target: Homeodomain-interacting protein kinase 3 (Homo sapiens) (UniProt Q9H422); assay: Inhibition of HIPK3 at 10 uM assessed as residual activity by [33P]ATP radioactive filter binding assay relative to control
Homeodomain-interacting protein kinase 3 (Homo sapiens), sequence (Q9H422 whole entry, looked up): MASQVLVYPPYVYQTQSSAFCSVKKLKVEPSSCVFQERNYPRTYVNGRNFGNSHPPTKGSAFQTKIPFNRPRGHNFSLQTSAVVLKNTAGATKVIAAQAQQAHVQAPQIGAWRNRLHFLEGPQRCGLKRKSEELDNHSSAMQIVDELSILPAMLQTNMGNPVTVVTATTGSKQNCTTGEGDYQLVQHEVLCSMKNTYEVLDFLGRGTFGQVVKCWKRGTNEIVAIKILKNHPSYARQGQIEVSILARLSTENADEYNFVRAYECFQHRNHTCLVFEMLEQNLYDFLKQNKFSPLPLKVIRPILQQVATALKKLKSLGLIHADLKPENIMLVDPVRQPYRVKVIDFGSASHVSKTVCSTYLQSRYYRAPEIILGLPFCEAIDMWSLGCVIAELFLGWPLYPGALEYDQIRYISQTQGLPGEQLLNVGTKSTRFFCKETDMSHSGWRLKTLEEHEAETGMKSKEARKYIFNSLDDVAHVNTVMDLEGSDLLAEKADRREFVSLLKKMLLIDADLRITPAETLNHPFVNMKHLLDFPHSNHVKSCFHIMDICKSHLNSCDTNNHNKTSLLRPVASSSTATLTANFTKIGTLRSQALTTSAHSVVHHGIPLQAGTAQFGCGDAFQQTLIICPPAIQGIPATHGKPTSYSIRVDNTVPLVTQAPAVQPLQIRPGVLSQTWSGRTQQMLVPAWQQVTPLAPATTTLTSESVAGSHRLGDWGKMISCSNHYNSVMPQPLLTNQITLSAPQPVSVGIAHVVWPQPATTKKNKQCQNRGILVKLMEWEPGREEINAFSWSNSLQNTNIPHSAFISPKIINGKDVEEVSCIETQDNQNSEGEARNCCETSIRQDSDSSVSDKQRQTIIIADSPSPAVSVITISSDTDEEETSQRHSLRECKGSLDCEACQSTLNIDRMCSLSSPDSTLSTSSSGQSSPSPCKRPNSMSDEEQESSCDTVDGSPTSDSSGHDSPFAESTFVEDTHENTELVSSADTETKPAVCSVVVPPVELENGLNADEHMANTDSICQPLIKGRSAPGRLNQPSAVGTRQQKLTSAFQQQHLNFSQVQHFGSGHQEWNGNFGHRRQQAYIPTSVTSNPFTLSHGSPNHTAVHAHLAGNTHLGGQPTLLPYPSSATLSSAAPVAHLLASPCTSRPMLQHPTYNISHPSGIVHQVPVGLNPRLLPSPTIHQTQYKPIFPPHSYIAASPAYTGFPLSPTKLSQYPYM

[24] = target: Serine/threonine-protein kinase pim-2 (Homo sapiens) (UniProt Q9P1W9); assay: Inhibition of PIM2 at 10 uM assessed as residual activity by [33P]ATP radioactive filter binding assay relative to control
Serine/threonine-protein kinase pim-2 (Homo sapiens), sequence (Q9P1W9 whole entry, looked up): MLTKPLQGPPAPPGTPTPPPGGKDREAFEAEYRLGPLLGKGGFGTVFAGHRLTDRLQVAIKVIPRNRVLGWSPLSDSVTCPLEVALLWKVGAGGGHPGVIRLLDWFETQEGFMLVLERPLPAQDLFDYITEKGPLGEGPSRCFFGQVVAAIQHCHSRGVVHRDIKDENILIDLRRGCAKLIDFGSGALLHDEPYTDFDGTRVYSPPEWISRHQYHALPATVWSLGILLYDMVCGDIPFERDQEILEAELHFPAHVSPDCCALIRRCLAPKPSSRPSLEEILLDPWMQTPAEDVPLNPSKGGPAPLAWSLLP

[25] = target: Ribosomal protein S6 kinase alpha-5 (Homo sapiens) (UniProt O75582); assay: Inhibition of MSK1 at 10 uM assessed as residual activity by [33P]ATP radioactive filter binding assay relative to control
[26] = target: Serine/threonine-protein kinase Chk1 (Homo sapiens) (UniProt O14757); assay: Inhibition of CHK1 at 10 uM assessed as residual activity by [33P]ATP radioactive filter binding assay relative to control
[27] = target: MAP kinase-interacting serine/threonine-protein kinase 2 (Homo sapiens) (UniProt Q9HBH9); assay: Inhibition of MNK2 at 10 uM assessed as residual activity by [33P]ATP radioactive filter binding assay relative to control
[28] = target: Serine/threonine-protein kinase PAK 4 (Homo sapiens) (UniProt O96013); assay: Inhibition of PAK4 at 10 uM assessed as residual activity by [33P]ATP radioactive filter binding assay relative to control
cells [29] = conditions: Mus musculus, BaF3, 96 h; remark: listed apart in the source
Description: Growth inhibition of mouse BA/F3 cells expressing EGFR Del5 and Thr790Met mutant after 96 hrs by cell titer-glo assay

[30] = target: Fibroblast growth factor receptor 1 (Homo sapiens) (UniProt P11362); assay: Inhibition of FGF-R1 at 10 uM assessed as residual activity by [33P]ATP radioactive filter binding assay relative to control
[31] = target: Dual specificity tyrosine-phosphorylation-regulated kinase 1A (Homo sapiens) (UniProt Q13627); assay: Inhibition of DYRK1A at 10 uM assessed as residual activity by [33P]ATP radioactive filter binding assay relative to control
[32] = target: Mitogen-activated protein kinase 12 (Homo sapiens) (UniProt P53778); assay: Inhibition of p38-gamma at 10 uM assessed as residual activity by [33P]ATP radioactive filter binding assay relative to control
[33] = target: Protein kinase C zeta type (Homo sapiens) (UniProt Q05513); assay: Inhibition of PKCzeta at 10 uM assessed as residual activity by [33P]ATP radioactive filter binding assay relative to control

| Activity [1] [%] | Activity [2] [%] | Activity [3] [%] | Activity [4] [%] | Activity [5] [%] | Activity [7] [%] | Activity [8] [%] | Activity [9] [%] | Activity [10] [%] | Activity [11] [%] | Activity [12] [%] | Activity [13] [%] | Activity [14] [%] | Activity [15] [%] | Activity [16] [%] | Activity [17] [%] | Activity [18] [%] | Activity [19] [%] | Structure (SMILES) | GI50 (cells [6]) [nM] | GI50 (cells [20]) [nM] | also measured |
| --- | --- | --- | --- | --- | --- | --- | --- | --- | --- | --- | --- | --- | --- | --- | --- | --- | --- | --- | --- | --- | --- |
| 74 | 5 | 89 | 86 | 100 | 103 | -10 | 10 | 30 | 75 | 36 | 30 | 71 | 72 | 61 | 32 | 73 | 90 | CN(C)CCCC(=O)Nc1ccc2nccc(Nc3cccc(Br)c3)c2c1 | < 500 | < 500 | Activity [21]: 82%; Activity [22]: 50%; Activity [23]: 96%; Activity [24]: 75%; Activity [25]: 96%; Activity [26]: 83%; Activity [27]: 21%; Activity [28]: 79%; GI50 (cells [29]): > 500 nM; Activity [30]: 31%; Activity [31]: 85%; Activity [32]: 94%; Activity [33]: 86% |
| 66 | 17 | 96 | 90 | 103 | 126 | -12 | 10 | 57 | 87 | 50 | 48 | 105 | 81 | 80 | 27 | 63 | 96 | CN(C)CCCC(=O)Nc1ccc2ncnc(Nc3cccc(Br)c3)c2c1 | < 500 | < 500 | Activity [21]: 72%; Activity [22]: 77%; Activity [23]: 106%; Activity [24]: 62%; Activity [25]: 93%; Activity [26]: 79%; Activity [27]: 14%; Activity [28]: 83%; GI50 (cells [29]): > 5000 nM; Activity [30]: 37%; Activity [31]: 65%; Activity [32]: 85%; Activity [33]: 86% |
